What all share (type): cell-based
The subject of one assay is Bacillus subtilis. As to the kind of experiment: Disc test, Bauer-Kirby technique with 10 Mcg. discs. The conditions noted are these: Bacillus subtilis, ATCC6633, strain ATCC 6633. The text has this:
(§1) Disc Test Results (Replicate Tests) With The Mutamicins, Sisomicin and
(§2) Bauer-Kirby Technique^1 With 10 Mcg. Discs
(§3) ^1 Bauer, Kirby, Sherris and Turck, American Journal of Clinical

Another assay has as its system Escherichia coli. Described as above. The conditions noted are these: Escherichia coli, read-out: Zone Size.
Text: as §1, §2, §3

The next assay deals with Providence 164. The assay is described as above. The conditions noted are these: strain 164.
Text: as §1, §2, §3

The subject of a further assay is Salmonella typhimurium. The description is as above. The following applies: Salmonella enterica, Group B.
Text: as §1, §2, §3

The subject of the next assay is Pseudomonas aeruginosa. The description is as above. The following applies: Pseudomonas aeruginosa.
Text: as §1, §2, §3

In a further assay the test system is Streptococcus pyogenes. The assay is described as above. The conditions noted are these: Streptococcus pyogenes.
Text: as §1, §2, §3

The subject of a further assay is Proteus airabilis. The assay is described as above. The conditions noted are these: strain Harding.
Text: as §1, §2, §3

The next assay has as its system Staphylococcus aureus. The assay is described as above. The following applies: Staphylococcus aureus.
Text: as §1, §2, §3

Assay [1] has as its system Klebsiella pneumoniae. Described as above. The following applies: Klebsiella pneumoniae.
Text: as §1, §2, §3

In a further assay the test system is Proteus rettgeri. Described as above. The following applies: Providencia rettgeri.
Text: as §1, §2, §3

Another assay concerns Providence. The assay can be described thus: Activity against resistant strains. The following applies: gentamicin, sisomicin, tobramycin resistant Providence. From the text:
(§4) In many instances, bacterial resistance is related to the organism's ability to inactivate the antibacterial agent via enzymatic (biochemical) means. Some species inactivate aminoglycosides antibiotics by acetylating the antibacterial agent, others by phosphorylation and still others by adenylylating. Some strains have several different inactivating capabilities. Further, the inactivation reactions occur at a specific site or sites on the antibacterial agent. We have shown by the compounds of this invention that alteration of sites on the antibiotic molecule not directly involved in inactivation processes can nevertheless frustrate these inactivation processes. […] The tables illustrate that the mutamicins include compounds which are active against strains having different mechanisms of inactivation of gentamicin, sisomicin, kanamycin, neomycin and torbramycin. For example, some mutamicins are effective against strains of E. coli which contain adenylylating R factors such as E. coli W677/R55 and LA290/R55. These E. coli strains are resistant to gentamicin, sisomicin and torbramycin. Some are also effective against gentamicin, tobramycin and kanamycin resistant adenylylating strains of Klebsiella pneumoniae and also kanamycin, neomycin phosphorylating strains of E. coli and Klebsiella pneumoniae. Further, some mutamicins are effective against gentamicin and sisomicin resistant strains of Pseudomonas aeruginosa and gentamicin, sisomicin, tobramycin resistant Providence which is sensitive to kanamycin. Thus, the mutamicins afford a means for combatting strains of bacteria which have already developed a variety of mechanisms for resisting the action of many of the antibiotics known in the art or currently in commercial use.

Assay [2] relates to Klebsiella pneumoniae. The assay can be described thus: Activity against resistant strains. The following applies: gentamicin, tobramycin and kanamycin resistant adenylylating strains.
Text: as §4

The test system of another assay is E. coli. The assay can be described thus: Activity against resistant strains. The following applies: E. coli W677/R55 and LA290/R55.
Text: as §4

[3] abbreviates: ATCC10536, strain ATCC 10536, 10 Mcg. discs.
The mark [4] stands for this setting: strain St. Michael 1574-1, 10 Mcg. discs.
[5] abbreviates: strain Swidinsky 4195, 10 Mcg. discs.

Read-outs that look alike come from different tables or passages of the source.

For the compound `CN[C@@H]1[C@@H](O)[C@@H](O[C@@H]2C[C@H](O[C@H]3OC(CN)=CC[C@H]3N)[C@@H](N)C[C@H]2N)OC[C@]1(C)O` [Mutamicin 2], the zone of inhibition at 10 µg/disc in the assay with Bacillus subtilis turned out to be 33 mm; in the assay with Escherichia coli (setting [3]), 28 mm; in the assay on Escherichia coli (strain 589, 10 Mcg. discs), 24 mm; in the assay with Escherichia coli (strain JR66, 10 Mcg. discs) it was 26 mm; in the assay with Escherichia coli (strain JR88, 10 Mcg. discs), 22 mm; with Escherichia coli (strain JR90, 10 Mcg. discs) it was 25 mm. For the same compound, the zone of inhibition at 10 µg/disc in the assay on Escherichia coli (strain LA290/R55, 10 Mcg. discs) was 21 mm; with Escherichia coli (setting [4]) it was 27 mm; in the assay on Escherichia coli (setting [5]), 25 mm; with Escherichia coli (strain W677/R55, 10 Mcg. discs), 21 mm; in the assay on Providence 164, 25 mm; in the assay with Salmonella typhimurium, 27 mm. Besides, the zone of inhibition at 10 µg/disc was 22 mm in the assay with Pseudomonas aeruginosa (strain Capetown 18); 26 mm with Pseudomonas aeruginosa (strain D-2); 27 mm with Pseudomonas aeruginosa (strain St. Michael 413); 26 mm in the assay on Pseudomonas aeruginosa (strain St. Michael 762); 28 mm in the assay with Pseudomonas aeruginosa (strain St. Michael 836); 27 mm in the assay on Pseudomonas aeruginosa (strain St. Michael 1262). Also, the zone of inhibition at 10 µg/disc amounted to 28 mm in the assay with Pseudomonas aeruginosa (strain St. Michael 1395); 33 mm with Pseudomonas aeruginosa (strain Stone 20); 27 mm in the assay on Pseudomonas aeruginosa (strain Stone 39); 25 mm with Pseudomonas aeruginosa (strain Stone 130); 23 mm in the assay with Pseudomonas aeruginosa (strain Stone 138); 17 mm in the assay with Streptococcus pyogenes (strain B-Cruz). The zone of inhibition at 10 µg/disc in the assay with Streptococcus pyogenes (strain C) was found to be 15 mm; with Proteus airabilis, 26 mm; with Staphylococcus aureus (ATCC6538P, strain ATCC 6538P), 27 mm; in the assay on Staphylococcus aureus (strain 59N), 29 mm; in the assay on Staphylococcus aureus (strain 1118), 14 mm; in the assay with Staphylococcus aureus (strain Grey) it was 16 mm. The zone of inhibition at 10 µg/disc is 29 mm in the assay on Staphylococcus aureus (strain Wood); 28 mm with Staphylococcus aureus (strain Ziegler); 23 mm in the assay with Klebsiella pneumoniae [1] (strain Ad 17); 25 mm in the assay on Klebsiella pneumoniae [1] (strain Ad 18); 21 mm with Klebsiella pneumoniae [1] (strain Georgetown 3020); 22 mm in the assay on Klebsiella pneumoniae [1] (strain Georgetown 3694). The zone of inhibition at 10 µg/disc with Proteus rettgeri amounted to 24 mm.

In the case of `CN[C@@H]1[C@@H](O)[C@@H](O[C@H]2[C@H](N)[C@H](O)[C@H](N)[C@@H](O[C@H]3OC(CN)=CC[C@H]3N)[C@@H]2O)OC[C@]1(C)O` [Mutamicin 4], the zone of inhibition at 10 µg/disc with Bacillus subtilis stood at 29 mm; in the assay with Escherichia coli (setting [3]) it was 27 mm; with Escherichia coli (strain 589, 10 Mcg. discs), 26 mm; in the assay with Escherichia coli (strain Baker 2, 10 Mcg. discs) it was 24 mm; with Escherichia coli (strain JR66, 10 Mcg. discs), 18 mm; with Escherichia coli (strain JR88, 10 Mcg. discs), 16 mm. The zone of inhibition at 10 µg/disc in the assay on Escherichia coli (strain JR90, 10 Mcg. discs) was 22 mm; with Escherichia coli (setting [4]), 25 mm; in the assay on Escherichia coli (setting [5]) it was 17 mm; with Escherichia coli (strain W677/R55, 10 Mcg. discs) it was 13 mm; in the assay on Providence 164, 0 mm; in the assay on Salmonella typhimurium it was 25 mm. For the same compound, the zone of inhibition at 10 µg/disc with Pseudomonas aeruginosa (strain Capetown 18) stood at 16 mm; in the assay with Pseudomonas aeruginosa (strain D-2), 17 mm; with Pseudomonas aeruginosa (strain St. Michael 413) it was 19 mm; in the assay on Pseudomonas aeruginosa (strain St. Michael 836), 19 mm; in the assay with Pseudomonas aeruginosa (strain St. Michael 1262) it was 19 mm; in the assay with Pseudomonas aeruginosa (strain St. Michael 1395) it was 19 mm. Also, the zone of inhibition at 10 µg/disc in the assay on Pseudomonas aeruginosa (strain Stone 20) was 28 mm; in the assay on Pseudomonas aeruginosa (strain Stone 39), 20 mm; with Pseudomonas aeruginosa (strain Stone 130) it was 14 mm; with Pseudomonas aeruginosa (strain Stone 138) it was 11 mm; in the assay with Streptococcus pyogenes (strain 27), 12 mm; in the assay on Streptococcus pyogenes (strain C), 12 mm. For the same compound, the zone of inhibition at 10 µg/disc in the assay with Proteus airabilis came to 21 mm; with Staphylococcus aureus (ATCC6538P, strain ATCC 6538P), 24 mm; with Staphylococcus aureus (strain 59N) it was 26 mm; in the assay on Staphylococcus aureus (strain 1118), 14 mm; in the assay with Staphylococcus aureus (strain Grey), 13 mm; in the assay on Staphylococcus aureus (strain Wood), 26 mm. Further, the zone of inhibition at 10 µg/disc was determined as 24 mm with Staphylococcus aureus (strain Ziegler); 25 mm in the assay with Klebsiella pneumoniae [1] (strain Ad 17); 24 mm in the assay on Klebsiella pneumoniae [1] (strain Ad 18); 26 mm with Klebsiella pneumoniae [1] (strain Ad 22); 19 mm in the assay with Klebsiella pneumoniae [1] (strain Georgetown 3020); 19 mm with Klebsiella pneumoniae [1] (strain Georgetown 3694). This compound showed a zone of inhibition at 10 µg/disc in the assay with Proteus rettgeri of 14 mm.

With `CN[C@@H]1[C@@H](O)[C@@H](O[C@@H]2[C@@H](N)[C@H](O[C@H]3OC(CN)=CC[C@H]3N)[C@@H](N)C[C@H]2N)OC[C@]1(C)O` [Mutamicin 5], the zone of inhibition at 10 µg/disc in the assay on Bacillus subtilis is 28 mm; with Escherichia coli (setting [3]) it was 24 mm; in the assay on Escherichia coli it was 18 mm; in the assay on Escherichia coli (strain JR66, 10 Mcg. discs), 0 mm; in the assay on Escherichia coli (strain JR88, 10 Mcg. discs), 0 mm; with Escherichia coli (strain JR90, 10 Mcg. discs) it was 0 mm. The zone of inhibition at 10 µg/disc in the assay on Escherichia coli (setting [4]) was 22 mm; with Escherichia coli (setting [5]) it was 0 mm; in the assay with Escherichia coli (strain W677/R55, 10 Mcg. discs), 10 mm; in the assay on Providence 164 it was 9 mm; in the assay on Salmonella typhimurium, 22 mm; in the assay with Pseudomonas aeruginosa (strain Capetown 18), 0 mm. The zone of inhibition at 10 µg/disc in the assay with Pseudomonas aeruginosa (strain D-2) turned out to be 0 mm; in the assay on Pseudomonas aeruginosa (strain St. Michael 413), 11 mm; in the assay on Pseudomonas aeruginosa (strain St. Michael 836), 10 mm; in the assay on Pseudomonas aeruginosa (strain St. Michael 1262) it was 10 mm; in the assay with Pseudomonas aeruginosa (strain St. Michael 1395), 0 mm; in the assay on Pseudomonas aeruginosa (strain Stone 20) it was 16 mm. Further, the zone of inhibition at 10 µg/disc in the assay on Pseudomonas aeruginosa (strain Stone 39) came out at 12 mm; with Pseudomonas aeruginosa (strain Stone 130) it was 0 mm; in the assay on Pseudomonas aeruginosa (strain Stone 138), 0 mm; with Proteus airabilis it was 19 mm; in the assay on Staphylococcus aureus (ATCC6538P, strain ATCC 6538P) it was 21 mm; in the assay on Staphylococcus aureus (strain 59N), 23 mm. Also, the zone of inhibition at 10 µg/disc in the assay on Staphylococcus aureus (strain Wood) came to 25 mm; in the assay with Staphylococcus aureus (strain Ziegler), 23 mm; in the assay on Klebsiella pneumoniae [1] (strain Ad 17) it was 20 mm; with Klebsiella pneumoniae [1] (strain Ad 18) it was 21 mm; in the assay with Klebsiella pneumoniae [1] (strain Georgetown 3020), 0 mm; in the assay with Klebsiella pneumoniae [1] (strain Georgetown 3694), 0 mm. This compound also showed a zone of inhibition at 10 µg/disc with Proteus rettgeri of 13 mm.

As to `NC[C@H]1O[C@H](O[C@H]2[C@H](O)[C@@H](O[C@H]3O[C@H](CO)[C@@H](O)[C@H](N)[C@H]3O)[C@H](N)C[C@@H]2N)[C@H](O)[C@@H](O)[C@@H]1O` [kanamycin], the “activity against resistant Providence” value with Providence is reported as “sensitive”. In the assay with Klebsiella pneumoniae [2], the “activity against resistant adenylylating strains” value is reported as “resistant”.

`NC[C@H]1O[C@H](O[C@H]2[C@H](O)[C@@H](O[C@H]3O[C@H](CO)[C@@H](O)[C@H](N)[C@H]3O)[C@H](N)C[C@@H]2N)[C@H](N)C[C@@H]1O` [tobramycin]: the “activity against strains containing adenylylating R factors” value with E. coli is listed as “resistant”. In addition, in the assay on Providence, the “activity against resistant Providence” value is “resistant”. In the assay on Klebsiella pneumoniae [2], the “activity against resistant adenylylating strains” value is reported as “resistant”.

Values taken from patent US4011390A, “Semi-synthetic aminocyclitol aminoglycoside antibiotics and methods for the preparation thereof” (Schering-Plough Corporation, priority 1974, dated 1977).
